Test results published in patent US7381750B2, “Amino-phenoxymethyl-benzamide opioid receptor antagonists” (Eli Lilly and Company, priority 2004, dated 2008).

Legend:
[1] = biological target: T1, cloned human mu opioid receptor (Homo sapiens, UniProt P35372); experiment: GTP-γ-S binding assay, antagonist mode (mu); assay type: biochemical; conditions: functional antagonist potency vs DAMGO 1 micromolar; membranes, [35S]GTP-γ-S SPA; Cheng-Prusoff
T1 construct: expressed in transfected cells
Experimental: (§1) The functional antagonist potency (Kb) of the sample compounds was determined using the GTPγS binding assay. GTPgS-based functional assays provide an in vitro measure of the activity of opioid agonists and antagonists. Opioid reference compounds or test compound are incubated with membrane homogenate from cells expressing the cloned human mu, kappa or delta opioid receptor and radiolabeled [35S]GTPgS. If the compound activates the opioid receptor, an increase in the binding of radiolabeled GTPgS is observed. […] These tests provide an in vitro measurement of the activity of the compound at human opioid receptors.
(§2) An SPA-based GTP-γ-S assay format was developed based on previous opioid (Emmerson et al., J. Pharm Exp Ther 278, 1121, 1996; Horng et al., Society for Neuroscience Abstracts, 434.6, 2000) and muscarinic (DeLapp et al., JPET 289, 946, 1999) assay formats. Membranes were resuspended in 20 mM HEPES, 100 mM NaCl, 5 mM MgCl2, 1 mM DTT, and 1 mM EDTA. Fifty (50) […] of GTP-γ-[35S], compound, membrane suspension (20 microgram/well), and wheat germ agglutinin coated SPA beads (1 mg/well) were added to clear bottom 96 well assay plates. GDP ([…]) was added to the membrane solution prior to addition to the assay plates. Plates were sealed and incubated for four hours at room temperature then placed in a refrigerator overnight to allow the beads to settle. Signal stability at 4° C. was determined to be >60 hours. Plates were warmed to room temperature and counted in a Wallac Microbeta scintillation counter. For antagonist assays, specific agonists were added at the following concentrations: (MOR) DAMGO 1 micromolar, (DOR) DPDPE 30 nM, (KOR) U69593 300 nM. Kb's were determined by Cheng-Prusoff equation (see Cheng and Prusoff, Biochem. Pharmacol. 22, 3099, 1973).

[2] = biological target: T2, cloned human delta opioid receptor (Homo sapiens, UniProt P41143); experiment: GTP-γ-S binding assay, antagonist mode (delta); assay type: biochemical; conditions: functional antagonist potency vs DPDPE 30 nM; membranes, [35S]GTP-γ-S SPA; Cheng-Prusoff
T2 construct: expressed in transfected cells
Experimental: as §1, §2

T2 sequence (P41143 whole entry): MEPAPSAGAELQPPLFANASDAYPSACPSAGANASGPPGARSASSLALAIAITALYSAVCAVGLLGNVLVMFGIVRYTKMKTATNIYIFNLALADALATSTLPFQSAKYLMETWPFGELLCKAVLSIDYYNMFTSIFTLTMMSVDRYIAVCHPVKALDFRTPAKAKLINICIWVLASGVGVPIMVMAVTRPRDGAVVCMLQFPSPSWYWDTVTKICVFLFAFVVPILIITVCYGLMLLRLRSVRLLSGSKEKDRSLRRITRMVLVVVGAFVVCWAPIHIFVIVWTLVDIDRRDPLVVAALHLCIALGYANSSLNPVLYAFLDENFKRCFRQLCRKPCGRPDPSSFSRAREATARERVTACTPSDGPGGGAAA
T1 sequence (P35372 whole entry): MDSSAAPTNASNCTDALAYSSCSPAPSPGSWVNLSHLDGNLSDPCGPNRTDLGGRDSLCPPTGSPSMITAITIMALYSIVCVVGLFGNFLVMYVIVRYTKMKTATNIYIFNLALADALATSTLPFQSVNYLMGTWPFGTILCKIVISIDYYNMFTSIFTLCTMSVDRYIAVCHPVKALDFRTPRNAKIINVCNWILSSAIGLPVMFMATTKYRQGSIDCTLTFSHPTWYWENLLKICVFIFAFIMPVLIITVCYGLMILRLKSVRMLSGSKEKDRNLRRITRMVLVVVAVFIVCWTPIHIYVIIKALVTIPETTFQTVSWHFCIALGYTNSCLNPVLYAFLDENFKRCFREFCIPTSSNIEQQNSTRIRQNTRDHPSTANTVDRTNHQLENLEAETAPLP

Row | Kb [1] | Kb [2] | Compound
1 | > 23 nM | > 67 nM | CC(C)CCNCc1ccc(COc2ccc(C(N)=O)cc2)cc1 [Example 4, 4-{4-[(3-Methyl-butylamino)-methyl]-benzyloxy}-benzamide]
2 | 62.9 nM | 337 nM | CC(C)CCNCc1ccc(OCc2ccc(C(N)=O)cc2)cc1 [Example 2, 4-{4-[(3-Methyl-butylamino)-methyl]-phenoxymethyl}-benzamide]
3 | > 23 nM | > 67 nM | CC(C)CCNCc1ccc(OCCc2ccc(C(N)=O)cc2)cc1 [Example 5, 4-(2-{4-[(3-Methyl-butylamino)-methyl]-phenoxy}-ethyl)-benzamide]
4 | > 21 nM | > 41 nM | CC(C)CCNCc1ccc(OCc2cccc(C(N)=O)c2)cc1 [Example 1, 3-{4-[(3-Methyl-butylamino)-methyl]-phenoxymethyl}-benzamide]
